Experimental data: patent US20240360194A1, “New Peptides as Potent and Selective GIP Receptor Agonists” (Sanofi, priority 2021, published 2024)
Converted amounts (≈) assume the structure as drawn. Numbered stars: 1 amine (or outer) side, 2 acyl side, 3 side chain; on linkers, the order of the positions; unused ones are H or OH. Square brackets hold non-standard residues; d marks the D form. Side chains are listed from the residue outwards. Peptide text beside a SMILES is read from it. * marks the point of attachment. C18 diacid = O=C(O)CCCCCCCCCCCCCCCCC(=O)*; γGlu = O=C(O)[C@H](CCC(=O)[*:2])N[*:1]; αMeF = C[C@](N)(Cc1ccccc1)C(=O)O; hLeu = CC(C)CC[C@H](N)C(=O)O; AEEA = NCCOCCOCC(=O)O; Aib = CC(C)(N)C(=O)O

Columns and labels:
human GIP receptor = biological target: T1, human GIP receptor (Homo sapiens, UniProt P48546); assay: In vitro cellular cAMP assay for GIP receptor efficacy (human adipocytes); type: cell-based; settings: for EC50: read-out: hGIPR EC50; for Emax: read-out: hGIPR Emax
T1 construct: human adipocytes endogenously expressing the human GIP receptor; host or cells: human preadipocytes (Lonza) differentiated to adipocytes
T1 sequence (P48546 22-466): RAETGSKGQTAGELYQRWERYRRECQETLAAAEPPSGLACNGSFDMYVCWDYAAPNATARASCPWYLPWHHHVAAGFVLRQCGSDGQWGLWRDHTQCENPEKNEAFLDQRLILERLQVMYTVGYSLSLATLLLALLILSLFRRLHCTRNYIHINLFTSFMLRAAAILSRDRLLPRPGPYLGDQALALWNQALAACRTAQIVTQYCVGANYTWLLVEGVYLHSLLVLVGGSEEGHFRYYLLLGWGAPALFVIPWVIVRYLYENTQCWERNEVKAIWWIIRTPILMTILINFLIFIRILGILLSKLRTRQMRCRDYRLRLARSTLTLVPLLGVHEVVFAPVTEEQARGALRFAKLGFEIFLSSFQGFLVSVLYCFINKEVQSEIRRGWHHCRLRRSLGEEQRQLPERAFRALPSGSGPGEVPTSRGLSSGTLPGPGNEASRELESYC
Method: For this, one vial of human preadipocytes (˜10^6 cells; Lonza) was thawed in a T-75 cell culture dish. The cells were cultivated at 37° C., 5% CO2, 95% humidity in Preadipocyte Growth Medium with Supplement Mix from Promo Cell.
After 3 days, the cells were washed with PBS and 1.5 ml Trypsin, incubated for 4 min, then resuspended in medium, centrifugated for 10 min @ 300 rcf RT, resuspended again and distributed to four T-75 cell culture dishes. Again, the cells were cultivated at 37° C., 5% CO2, 95% humidity.
After 5 days, the cells were washed with PBS and 1.5 ml Trypsin, incubated for 4 min, then resuspended in medium, centrifugated for 10 min @ 300 rcf RT, resuspended again and sawn in T-75 dishes (2.5×10^6 cells per dish) in 15 ml Differentiation medium each.
The differentiation medium had the following composition: DMEM (Gibco), Ham's F10 (Gibco), 15 mM HEPES (Gibco), 3% FCS (PAA), 33 μM biotin (Sigma-Aldrich), 17 μM Pantothenate (Sigma-Aldrich), 0.1 μM human insulin (Sigma-Aldrich), 1 μM dexamethason (Sigma-Aldrich), 0.1 μM PPARgamma agonist (#R2408, Sigma-Aldrich), 0.6×Anti-Anti (#15240, ThermoFisher), 200 μM IBMX (AppliChem), and 0.01 μM L-thyroxine (Sigma-Aldrich).
After 6 days of differentiation, 5000 cells per well were dispensed on a 96-well plate (#CLS3694 from Corning®, Sigma-Aldrich). For measurement of cAMP generation, 25 μL of test compound was added to each well of the 96-well plate, followed by incubation for 30 min at room temperature.
The cAMP generated following test compound stimulation was determined using a kit from Cisbio Corp. based on HTRF (Homogenous Time Resolved Fluorescence). The cAMP assay was performed according to manufacturer's instructions (Cisbio).
The cAMP content of cells was determined using a kit from Cisbio Corp. based on HTRF (Homogenous Time Resolved Fluorescence).
After addition of HTRF reagents diluted in lysis buffer (kit components), the plates were incubated for 1 h, followed by measurement of the fluorescence ratio at 665/620 nm.

[1] = biological target: human GLP-1 receptor (hGLP-1R) (Homo sapiens, UniProt P43220); assay: In vitro cellular cAMP assay for GLP-1 receptor efficacy (HEK-293 cell line over-expressing receptor); type: cell-based; settings: HEK-293, 0.1% BSA
[2] = biological target: T2, human GIP receptor (hGIPR) (Homo sapiens, UniProt P48546); assay: Binding assay, displacement of [125I]GIP from HEK-293 membranes over-expressing GIPR (SPA); settings: [125I]GIP displacement
T2 sequence (P48546 22-466): T1 sequence (P48546 22-466)
Method: (1) Preparation of Membranes from HEK-293 Cells Over-Expressing GIPR or GLP-1R
HEK-293 cells recombinantly over-expressing GIPR or GLP-1R were grown to 50% confluency, washed with warm 1×PBS (Gibco) and detached in HEPES/EDTA-buffer (100 mM HEPES pH 7.5, 5 mM EDTA). Cells were harvested by centrifugation at 4° C. and 3000×g and the pellets were stored at −80° C. until further processing.
After thawing on ice, pellets were resuspended in HEPES/EDTA-buffer and homogenized on ice for 1 min using Ultra-Turray T25. After subsequent sonification the cell debris was removed by centrifugation at 1000×g and 4° C. Supernatants were then ultra-centrifuged at 100000×g and 4° C. under vacuum for 30 min. Pellets were resuspended in HEPES/EDTA/NaCl-buffer (20 mM HEPES, 1 mM EDTA, 150 mM NaCl; add 1 Complete Mini Protease inhibitor cocktail to 10 ml buffer) and protein content was determined via BCA-Protein assay.
(2) Measurement of Binding Activity of Test Compounds to Human GIPR or GLP-1R

[3] = Solubility assessment (UHPLC-UV of supernatant, target 10 mg/ml); type: physicochemical; settings: for solubility at 24 h: pH 7.4, Soluble amount
Method: Prior to the solubility measurement of a peptide batch, its purity was determined through UHPLC/MS.
Therefore, solutions from solid samples were prepared in a buffer system with a concentration of 10 mg/ml compound based on the previously determined % purity: • Solubility buffer system A) 100 mM phosphate buffer pH 7.4 • Solubility buffer system B) 8 mM phosphate buffer pH 7.4, 14 mg/ml propylene glycol, 5.5 mg/ml phenol • Solubility buffer system C) 100 mM phosphate buffer pH 7.4, 2.7 mg/ml m-cresol
UHPLC-UV was performed after 1 h of gentle agitation and storage at 5° C. overnight (24 h) from the supernatant, which was obtained after 15 min of centrifugation at 2500 RCF (relative centrifugal acceleration).
The different UV extinction coefficients of sample and reference peptide were calculated based on the different amino acid sequences and considered in the concentration calculation.
The analytical method used was Analytical UHPLC Method A.
Peptide samples were prepared in solubility buffer system A or C and solubility was assessed as described in Methods.

Sequence of human GLP-1 receptor (hGLP-1R) (P43220 24-463): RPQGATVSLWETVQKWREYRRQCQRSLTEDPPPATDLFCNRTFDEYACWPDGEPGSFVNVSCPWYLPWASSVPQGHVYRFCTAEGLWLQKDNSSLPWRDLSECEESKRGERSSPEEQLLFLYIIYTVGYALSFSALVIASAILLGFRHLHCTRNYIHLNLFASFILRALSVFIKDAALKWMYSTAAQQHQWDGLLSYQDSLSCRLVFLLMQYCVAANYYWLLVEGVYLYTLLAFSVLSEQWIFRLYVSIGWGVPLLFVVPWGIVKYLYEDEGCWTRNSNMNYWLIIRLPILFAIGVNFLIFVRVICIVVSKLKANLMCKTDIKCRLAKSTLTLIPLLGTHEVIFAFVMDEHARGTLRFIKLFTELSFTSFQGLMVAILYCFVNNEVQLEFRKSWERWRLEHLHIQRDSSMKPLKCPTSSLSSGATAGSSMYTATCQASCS

| SMILES | EC50 (human GIP receptor) [nM] | Emax (human GIP receptor) [%] | EC50 [1] [nM] | IC50 [2] [nM] | solubility at 24 h [3] [µg/mL] | Soluble amount ([3]; 24 h, pH 7.4) [mg/mL] |
| --- | --- | --- | --- | --- | --- | --- |
| CC[C@H](C)[C@H](NC(=O)[C@H](CCCNC(=N)N)NC(=O)[C@H](CC(=O)O)NC(=O)[C@H](CCCCNC(=O)COCCOCCNC(=O)COCCOCCNC(=O)CC[C@H](NC(=O)CCCCCCCCCCCCCCCCC(=O)O)C(=O)O)NC(=O)C(C)(C)NC(=O)[C@@H](NC(=O)[C@H](CO)NC(=O)[C@H](CC(C)C)NC(=O)[C@H](CC(=O)O)NC(=O)[C@H](CO)NC(=O)[C@@H](NC(=O)[C@H](Cc1ccccc1)NC(=O)[C@@H](NC(=O)CNC(=O)[C@H](CCC(=O)O)NC(=O)C(C)(C)NC(=O)[C@@H](N)Cc1ccc(O)cc1)[C@@H](C)O)[C@@H](C)CC)[C@@H](C)CC)C(=O)N[C@@H](Cc1c[nH]cn1)C(=O)N[C@@H](CCC(N)=O)C(=O)NC(C)(C)C(=O)N[C@@H](CCC(=O)O)C(=O)N[C@@H](Cc1ccccc1)C(=O)N[C@H](C(=O)N[C@@H](CCC(=O)O)C(=O)N[C@@H](Cc1c[nH]c2ccccc12)C(=O)N[C@@H](CC(C)C)C(=O)N[C@@H](CC(C)C)C(=O)N[C@@H](C)C(=O)N[C@@H](CCC(N)=O)C(=O)N[C@@H](CCCNC(=N)N)C(=O)N1CCC[C@H]1C(=O)N[C@@H](CO)C(=O)N[C@@H](CO)C(=O)NCC(=O)N[C@@H](C)C(=O)N1CCC[C@H]1C(=O)N1CCC[C@H]1C(=O)N1CCC[C@H]1C(=O)N[C@@H](CO)C(N)=O)[C@@H](C)CC [SEQ ID NO: 30, H2N-Y-Aib-E-G-T-F-I-S-D-L-S-I-Aib-K[{AEEA}2-gGlu-C18OH]-D-R-I-H-Q-Aib-E-F-I-E-W-L-L-A-Q-R-P-S-S-G-A-P-P-P-S-NH2] (H-Y[Aib]EGTFISDLSI[Aib]K([AEEA-AEEA-γGlu-C18 diacid])DRIHQ[Aib]EFIEWLLAQRPSSGAPPPS-NH2) | 0.5 | 138 | > 10 | 0.1 | 8400 (≈ 1660 µM) |  |
| CC[C@H](C)[C@H](NC(=O)[C@H](CCCNC(=N)N)NC(=O)[C@H](CC(=O)O)NC(=O)[C@H](CCCCNC(=O)COCCOCCNC(=O)COCCOCCNC(=O)CC[C@H](NC(=O)CCCCCCCCCCCCCCCCC(=O)O)C(=O)O)NC(=O)C(C)(C)NC(=O)[C@@H](NC(=O)[C@H](CO)NC(=O)[C@H](CC(C)C)NC(=O)[C@H](CC(=O)O)NC(=O)[C@H](CO)NC(=O)[C@@H](NC(=O)[C@H](Cc1ccccc1)NC(=O)[C@@H](NC(=O)CNC(=O)[C@H](CCC(=O)O)NC(=O)C(C)(C)NC(=O)[C@@H](N)Cc1ccc(O)cc1)[C@@H](C)O)[C@@H](C)CC)[C@@H](C)CC)C(=O)N[C@@H](Cc1c[nH]cn1)C(=O)N[C@@H](CCC(N)=O)C(=O)N[C@@H](CCC(=O)O)C(=O)N[C@@H](CCC(=O)O)C(=O)N[C@@](C)(Cc1ccccc1)C(=O)N[C@H](C(=O)N[C@@H](CCC(=O)O)C(=O)N[C@@H](Cc1c[nH]c2ccccc12)C(=O)N[C@@H](CC(C)C)C(=O)N[C@@H](CC(C)C)C(=O)N[C@@H](C)C(=O)N[C@@H](CCC(N)=O)C(=O)NCC(=O)N1CCC[C@H]1C(=O)N[C@@H](CO)C(=O)N[C@@H](CO)C(=O)NCC(=O)N[C@@H](C)C(=O)N1CCC[C@H]1C(=O)N1CCC[C@H]1C(=O)N1CCC[C@H]1C(=O)N[C@@H](CO)C(N)=O)[C@@H](C)CC [SEQ ID NO: 32, H2N-Y-Aib-E-G-T-F-I-S-D-L-S-I-Aib-K[{AEEA}2-gGlu-C18OH]-D-R-I-H-Q-E-E-Mph-I-E-W-L-L-A-Q-G-P-S-S-G-A-P-P-P-S-NH2] (H-Y[Aib]EGTFISDLSI[Aib]K([AEEA-AEEA-γGlu-C18 diacid])DRIHQEE[αMeF]IEWLLAQGPSSGAPPPS-NH2) | 0.6 | 109 | > 10 | 0.9 | 8200 (≈ 1630 µM) |  |
| CC[C@H](C)[C@H](NC(=O)[C@H](Cc1ccccc1)NC(=O)[C@H](CCC(=O)O)NC(=O)[C@H](CCC(=O)O)NC(=O)[C@H](CCC(N)=O)NC(=O)[C@H](Cc1c[nH]cn1)NC(=O)[C@@H](NC(=O)[C@H](CCCNC(=N)N)NC(=O)[C@H](CC(=O)O)NC(=O)[C@H](CCCCNC(=O)COCCOCCNC(=O)COCCOCCNC(=O)CC[C@H](NC(=O)CCCCCCCCCCCCCCCCC(=O)O)C(=O)O)NC(=O)C(C)(C)NC(=O)[C@@H](NC(=O)[C@H](CO)NC(=O)[C@H](CCC(C)C)NC(=O)[C@H](CC(=O)O)NC(=O)[C@H](CO)NC(=O)[C@@H](NC(=O)[C@H](Cc1ccccc1)NC(=O)[C@@H](NC(=O)CNC(=O)[C@H](CCC(=O)O)NC(=O)C(C)(C)NC(=O)[C@@H](N)Cc1ccc(O)cc1)[C@@H](C)O)[C@@H](C)CC)[C@@H](C)CC)[C@@H](C)CC)C(=O)N[C@@H](CCC(=O)O)C(=O)N[C@@H](Cc1c[nH]c2ccccc12)C(=O)N[C@@H](CC(C)C)C(=O)N[C@@H](CC(C)C)C(=O)N[C@@H](C)C(=O)N[C@@H](CCC(N)=O)C(=O)NCC(=O)N1CCC[C@H]1C(=O)N[C@@H](CO)C(=O)N[C@@H](CO)C(=O)NCC(=O)N[C@@H](C)C(=O)N1CCC[C@H]1C(=O)N1CCC[C@H]1C(=O)N1CCC[C@H]1C(=O)N[C@@H](CO)C(N)=O [SEQ ID NO: 34, H2N-Y-Aib-E-G-T-F-I-S-D-Hol-S-I-Aib-K[{AEEA}2-gGlu-C18OH]-DRIHQEEFIEWLLAQGPSSGAPPPS-NH2] (H-Y[Aib]EGTFISD[hLeu]SI[Aib]K([AEEA-AEEA-γGlu-C18 diacid])DRIHQEEFIEWLLAQGPSSGAPPPS-NH2) | 0.5 | 112 | > 10 | 0.3 | > 9200 | >8.7 |
